Results taken from US20040034082A1, “Utilization of pyrazoline derivatives in the preparation of a medicament for the prevention and/or treatment of proliferative cell diseases” (priority 2001, published 2004).

Row | SMILES | melting point [°C]
1 | Cc1ccc(C2CC(C(F)(F)F)=NN2c2ccc(S(N)(=O)=O)cc2)cc1 (stereo not shown) [Example 1] | 140 to 143
2 | CC1(c2ccccc2)CC(C(F)(F)F)=NN1c1ccc(S(N)(=O)=O)cc1 (stereo not shown) [Example 2] | 60 to 66
3 | Cc1ccc(N2N=C(C(F)(F)F)CC2c2ccc(S(C)(=O)=O)cc2)cc1 (stereo not shown) [Example 4] | 140 to 143
4 | NS(=O)(=O)c1ccc(N2N=C(C(F)(F)F)CC2c2ccccc2)cc1 (stereo not shown) [Example 5] | 156 to 157
5 | CS(=O)(=O)c1ccc(N2N=C(C(F)(F)F)CC2c2ccccc2)cc1 (stereo not shown) [Example 6] | 137 to 140
6 | Cc1ccc(C2CC(C(F)(F)F)=NN2c2ccc(S(C)(=O)=O)cc2)cc1 (stereo not shown) [Example 7] | 115 to 119
7 | NS(=O)(=O)c1ccc(N2N=C(C(F)(F)F)CC2c2ccc(F)cc2)cc1 (stereo not shown) [Example 8] | 154 to 156
8 | CS(=O)(=O)c1ccc(N2N=C(C(F)(F)F)CC2c2ccc(F)cc2)cc1 (stereo not shown) [Example 9] | 121 to 122
9 | NS(=O)(=O)c1ccc(N2N=C(C(F)(F)F)CC2c2ccc(F)c(F)c2)cc1 (stereo not shown) [Example 11] | 153 to 155
10 | CS(=O)(=O)c1ccc(N2N=C(C(F)(F)F)CC2c2ccc(Cl)cc2Cl)cc1 (stereo not shown) [Example 12] | 198 to 200
11 | NS(=O)(=O)c1ccc(N2N=C(C(F)(F)F)CC2c2ccc(Cl)cc2Cl)cc1 (stereo not shown) [Example 13] | 143 to 145
12 | Cc1ccccc1C1CC(C(F)(F)F)=NN1c1ccc(S(N)(=O)=O)cc1 (stereo not shown) [Example 14] | 124 to 126
13 | Cc1cccc(C2CC(C(F)(F)F)=NN2c2ccc(S(N)(=O)=O)cc2)c1 (stereo not shown) [Example 15] | 125 to 128
14 | NS(=O)(=O)c1ccc(N2N=C(C(F)(F)F)CC2c2ccccc2F)cc1 (stereo not shown) [Example 16] | 166 to 168
15 | CS(=O)(=O)c1ccc(N2N=C(C(F)(F)F)CC2c2ccccc2F)cc1 (stereo not shown) [Example 17] | 117 to 121

Second part, the molecule after the results:

Row | melting point [°C] | SMILES
16 | 132 to 133 | NS(=O)(=O)c1ccc(N2N=C(C(F)(F)F)CC2c2cccc(F)c2)cc1 (stereo not shown) [Example 18]
17 | 149 to 151 | CS(=O)(=O)c1ccc(N2N=C(C(F)(F)F)CC2c2cccc(F)c2)cc1 (stereo not shown) [Example 19]
18 | 125 to 128 | COc1ccc(C2CC(C(F)(F)F)=NN2c2ccc(S(N)(=O)=O)cc2)cc1 (stereo not shown) [Example 20]
19 | 171 to 173 | NS(=O)(=O)c1ccc(N2N=C(C(F)(F)F)CC2c2ccc(F)c(Cl)c2)cc1 (stereo not shown) [Example 21]
20 | 134 to 137 | NS(=O)(=O)c1ccc(N2N=C(C(F)(F)F)CC2c2ccc(OC(F)(F)F)cc2)cc1 (stereo not shown) [Example 22]
21 | 152 to 154 | NS(=O)(=O)c1ccc(N2N=C(C(F)(F)F)CC2c2cccc(F)c2F)cc1 (stereo not shown) [Example 23]
22 | 158 to 160 | Cc1ccc(C2CC(C(F)(F)F)=NN2c2ccc(S(N)(=O)=O)cc2)c(C)c1 (stereo not shown) [Example 24]
23 | 132 to 135 | CS(=O)(=O)c1ccc(N2N=C(C(F)(F)F)CC2c2ccc(F)c(F)c2)cc1 (stereo not shown) [Example 25]
24 | 206 to 208 | CC1=NN(c2ccc(S(N)(=O)=O)cc2)C(c2ccc(F)cc2)C1 (stereo not shown) [Example 26]
25 | 120 to 123 | CC1=NN(c2ccc(S(C)(=O)=O)cc2)C(c2ccc(F)cc2)C1 (stereo not shown) [Example 27]
26 | 195 to 197 | CC1=NN(c2ccc(S(N)(=O)=O)cc2)C(c2ccc(C)cc2)C1 (stereo not shown) [Example 28]
27 | 113 to 117 | CC1=NN(c2ccc(S(C)(=O)=O)cc2)C(c2ccc(C)cc2)C1 (stereo not shown) [Example 29]
28 | 190 to 194 | CC1=NN(c2ccc(S(N)(=O)=O)cc2)C(c2ccc(C(F)(F)F)cc2)C1 (stereo not shown) [Example 30]
29 | 206 to 208 | NS(=O)(=O)c1ccc(N2N=CCC2c2ccccc2)cc1 (stereo not shown) [Example 31]
30 | 197 to 202 | CS(=O)(=O)c1ccc(N2N=CCC2c2ccccc2)cc1 (stereo not shown) [Example 32]
31 | 136 to 138 | CC1=NN(c2ccc(S(C)(=O)=O)cc2)C(c2ccc(C(F)(F)F)cc2)C1 (stereo not shown) [Example 33]
